Test results taken from the supplement of paper PMC10883282.

Assays:
Experiment in all cases: relative viability vs DMSO control (72 h) (fraction); higher = more viable cells
A204 = tested on: A204
How it was run: (§1)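 Densities for seeding sarcoma cell lines into 384-well plates were set to give 80–90% confluence. After 24 h, 2.5 µl of serially diluted compound from source plates of 10 mM to 0.0002 mM went in, and plates stayed 72 h at 37 °C in 5% CO2 with 0.1% DMSO vehicle and a 5 µM positive control. Percent growth from ATPLite readings, averaged over up to triplicate wells, served as relative viability, rescaled so 1 means full and 0 means none.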

G401 = tested on: G401
How it was run: as §1

HS729 = tested on: HS729
How it was run: as §1

KHOS-240S = tested on: KHOS-240S
How it was run: as §1

MES-SA = tested on: MES-SA
How it was run: as §1

RD = tested on: RD
How it was run: as §1

SK-ES-1 = tested on: SK-ES-1
How it was run: as §1

SK-LMS-1 = tested on: SK-LMS-1
How it was run: as §1

SW1353 = tested on: SW1353
How it was run: as §1

SW872 = tested on: SW872
How it was run: as §1

SW982 = tested on: SW982
How it was run: as §1

VA-ES-BJ = tested on: VA-ES-BJ
How it was run: as §1

O=S(=O)(c1cccc2c(O)nccc12)N1CCCNCC1 [Hydroxyfasudil]
Settings | relative viability
A204, 0.00017 µM | 1.08
A204, 0.00051 µM | 1.1
A204, 0.00152 µM | 1.12
A204, 0.00457 µM | 1.1
A204, 0.01372 µM | 1.11
A204, 0.04115 µM | 1.11
A204, 0.1235 µM | 1.11
A204, 0.3704 µM | 1.06
A204, 1.111 µM | 1.04
A204, 3.333 µM | 1.05
A204, 10 µM | 0.979
G401, 0.00017 µM | 1.02
G401, 0.00051 µM | 1.05
G401, 0.00152 µM | 1.03
G401, 0.00457 µM | 1.05
G401, 0.01372 µM | 1.052
G401, 0.04115 µM | 1.05
G401, 0.1235 µM | 1.03
G401, 0.3704 µM | 1.03
G401, 1.111 µM | 1.038
G401, 3.333 µM | 1.01
G401, 10 µM | 0.944
HS729, 0.00017 µM | 1.087
HS729, 0.00051 µM | 0.998
HS729, 0.00152 µM | 1.05
HS729, 0.00457 µM | 1.004
HS729, 0.01372 µM | 0.967
HS729, 0.04115 µM | 0.969
HS729, 0.1235 µM | 0.97
HS729, 0.3704 µM | 0.962
HS729, 1.111 µM | 0.95
HS729, 3.333 µM | 0.887
HS729, 10 µM | 0.853
KHOS-240S, 0.00017 µM | 1.1
KHOS-240S, 0.00051 µM | 1.1
KHOS-240S, 0.00152 µM | 1.1
KHOS-240S, 0.00457 µM | 1.11
KHOS-240S, 0.01372 µM | 1.1
KHOS-240S, 0.04115 µM | 1.1
KHOS-240S, 0.1235 µM | 1.11
KHOS-240S, 0.3704 µM | 1.1
KHOS-240S, 1.111 µM | 1.04
KHOS-240S, 3.333 µM | 0.998
KHOS-240S, 10 µM | 0.906
MES-SA, 0.00017 µM | 0.981
MES-SA, 0.00051 µM | 0.973
MES-SA, 0.00152 µM | 0.93
MES-SA, 0.00457 µM | 0.962
MES-SA, 0.01372 µM | 0.944
MES-SA, 0.04115 µM | 0.92
MES-SA, 0.1235 µM | 0.96
MES-SA, 0.3704 µM | 0.942
MES-SA, 1.111 µM | 0.934
MES-SA, 3.333 µM | 0.879
MES-SA, 10 µM | 0.819
RD, 0.00017 µM | 1.089
RD, 0.00051 µM | 1.14
RD, 0.00152 µM | 1.16
RD, 0.00457 µM | 1.14
RD, 0.01372 µM | 1.15
RD, 0.04115 µM | 1.16
RD, 0.1235 µM | 1.15
RD, 0.3704 µM | 1.16
RD, 1.111 µM | 1.17
RD, 3.333 µM | 1.17
RD, 10 µM | 1.18
SK-ES-1, 0.00017 µM | 1.09
SK-ES-1, 0.00051 µM | 1.09
SK-ES-1, 0.00152 µM | 1.06
SK-ES-1, 0.00457 µM | 1.05
SK-ES-1, 0.01372 µM | 1.07
SK-ES-1, 0.04115 µM | 1.1
SK-ES-1, 0.1235 µM | 1.06
SK-ES-1, 0.3704 µM | 1.08
SK-ES-1, 1.111 µM | 1.07
SK-ES-1, 3.333 µM | 1.04
SK-ES-1, 10 µM | 1.02
SK-LMS-1, 0.00017 µM | 1.01
SK-LMS-1, 0.00051 µM | 1.06
SK-LMS-1, 0.00152 µM | 1.01
SK-LMS-1, 0.00457 µM | 1.06
SK-LMS-1, 0.01372 µM | 1.04
SK-LMS-1, 0.04115 µM | 1.06
SK-LMS-1, 0.1235 µM | 0.983
SK-LMS-1, 0.3704 µM | 0.99
SK-LMS-1, 1.111 µM | 0.99
SK-LMS-1, 3.333 µM | 0.987
SK-LMS-1, 10 µM | 0.869
SW872, 0.00017 µM | 1.12
SW872, 0.00051 µM | 1.11
SW872, 0.00152 µM | 1.09
SW872, 0.00457 µM | 1.1
SW872, 0.01372 µM | 1.07
SW872, 0.04115 µM | 1.11
SW872, 0.1235 µM | 1.07
SW872, 0.3704 µM | 1.07
SW872, 1.111 µM | 1.08
SW872, 3.333 µM | 1.03
SW872, 10 µM | 0.964
SW982, 0.00017 µM | 1.02
SW982, 0.00051 µM | 1.05
SW982, 0.00152 µM | 1.05
SW982, 0.00457 µM | 1.081
SW982, 0.01372 µM | 1.05
SW982, 0.04115 µM | 1.06
SW982, 0.1235 µM | 1.073
SW982, 0.3704 µM | 1.06
SW982, 1.111 µM | 1.04
SW982, 3.333 µM | 1.041
SW982, 10 µM | 0.92
SW1353, 0.00017 µM | 1.06
SW1353, 0.00051 µM | 1.07
SW1353, 0.00152 µM | 1.05
SW1353, 0.00457 µM | 1.07
SW1353, 0.01372 µM | 1.01
SW1353, 0.04115 µM | 1.01
SW1353, 0.1235 µM | 1.038
SW1353, 0.3704 µM | 1.036
SW1353, 1.111 µM | 0.96
SW1353, 3.333 µM | 0.913
SW1353, 10 µM | 0.775
VA-ES-BJ, 0.00017 µM | 1.07
VA-ES-BJ, 0.00051 µM | 1.1
VA-ES-BJ, 0.00152 µM | 1.11
VA-ES-BJ, 0.00457 µM | 1.08
VA-ES-BJ, 0.01372 µM | 1.07
VA-ES-BJ, 0.04115 µM | 1.061
VA-ES-BJ, 0.1235 µM | 1.06
VA-ES-BJ, 0.3704 µM | 1.09
VA-ES-BJ, 1.111 µM | 1.01
VA-ES-BJ, 3.333 µM | 1.01
VA-ES-BJ, 10 µM | 0.998
